# In patent US11826344B2, “Composition, method of manufacture, and use of site-specific delivery of bruceolides for treatment of cancer and other diseases” (HOWARD UNIVERSITY, priority 2015, dated 2023):
# pIC50: −log10 of the molar value.
# Columns and labels:
# Type in all cases: cell-based, human
# [1] = system: Prostate cancer lines PC3 and LNCaP; assay: Preliminary cytotoxicity study of brusatol solution on prostate cancer cell lines (FIG. 1); details: brusatol 1 nM to 10,000 nM, read from FIG. 1, read-out: IC50 (kills prostate cancer cells)
# Description: (§1) The human prostate cancer cell lines, PC3 and LNCaP, were obtained from American Type Culture Collection (Manassas, VA). The PC3 and LNCaP cell lines were maintained in RPMI 1640 supplemented with 10% (v/v) FBS and 100 U/mL of penicillin G and 100 µg/mL of streptomycin sulfate. The cells were maintained as a monolayer in an incubator at 37° C. in a humid atmosphere with 5% CO2.
# PC3 cells = assay: Cell Titer 96 Non-Radioactive Cell Proliferation Assay, PC3 cells, 120 h; details: PC3, 10-500 nM
# Description: as §1
# (§2) PC3 (seeding density of 3,000 cells per well) and LNCaP (seeding density of 6,000 cells per well) were seeded in 96-well plates and allowed to attach for 24 h. […] Cell viability was assessed at 120 h after treatment. The Cell Titer 96® Non-Radioactive Cell Proliferation Assay manufactured by Promega Corporation was employed for this study. Results are presented as percent viability normalized to controls and represent the mean±SD of six replicates per concentration tested. Results were analyzed using One-way Analysis of Variance (ANOVA) and Student's t-test with the aid of SPSS® statistical software. Differences were considered significant at p<0.05.
# (§3) The toxicity of the brusatol-loaded nanoparticles in prostate cancer cell lines was evaluated over 120 hours using the Cell Titer 96® Non-Radioactive Cell Proliferation Assay (Promega Corp.). LNCaP cells are androgen receptor dependent while PC-3 cells are androgen independent. […]
# LNCaP cells [2] = assay: Cell Titer 96 Non-Radioactive Cell Proliferation Assay, LNCaP cells, 120 h; details: 10-500 nM
# Description: as §1, §2, §3
# LNCaP cells [3] = assay: Cell cycle analysis by propidium iodide flow cytometry; details: 50 nM brusatol, 120 h (day 5)
# Description: LNCaP cells (seeding density of 40,000 cells per well) were seeded in triplicates in a 24-well plate and incubated for 48 hours. […] The experiment was done in triplicate. At the 120 h time point, cells were harvested and washed twice with cold PBS, fixed in 70% ethanol for 1 h at 4° C. The cells were then washed twice with PBS, and treated with ribonuclease followed by staining with propidium iodide. The stained cells were subjected to cell cycle analysis using the BD Accuri™ C6 flow cytometer (BD Biosciences, Ann Arbor, MI, USA). For each replicate, 20,000 events were recorded.
substance,measurement,setting,value
Brusatol,pIC50,[1],7.00 to 9.00
same,toxicity (in words),PC3 cells,dose-dependent toxicity
same,toxicity (in words),LNCaP cells [2],dose-dependent toxicity
same,cell cycle effect,LNCaP cells [3],induces a G1 arrest
same,cell cycle effect,LNCaP cells [3]; listed as brusatol solution,G1 arrest
